Tested on: MV-4-11 cells
Assay: Gene expression microarray analysis (Affymetrix PrimeView) and GSEA
Type: cell-based, human
Design: RFU PODN (11730768_x_at) / Fold change /veh PODN (11730768_x_at) / RFU LINC00158 (11744669_a_at) / Fold change /veh LINC00158 (11744669_a_at) / RFU DUSP10 (11751237_a_at) / Fold change /veh DUSP10 (11751237_a_at) / RFU ID3 (11757404_x_at) / Fold change /veh ID3 (11757404_x_at) / RFU PLEKHG5 (11737974_s_at) / Fold change /veh PLEKHG5 (11737974_s_at) / RFU LRRC4B (11730491_at) / Fold change /veh LRRC4B (11730491_at) / RFU GIMAP4 (11747438_a_at) / Fold change /veh GIMAP4 (11747438_a_at) / RFU KRT8 (11758183_x_at) / Fold change /veh KRT8 (11758183_x_at) / RFU CNN1 (11734310_a_at) / Fold change /veh CNN1 (11734310_a_at) / RFU VPS37D (11726825_at) / Fold change /veh VPS37D (11726825_at) / RFU C10orf10 (11716522_x_at) / Fold change /veh C10orf10 (11716522_x_at) / RFU KIR2DL2 /// KIR2DL4 /// KIR2DL5A /// KIR2DL5B /// KIR2DS1 /// KIR2DS2 /// KIR2DS3 /// KIR2DS4 /// KIR3DL3 /// KIR3DL3 /// KIR3DS1 (11738374_at) / Fold change /veh KIR2DL2 /// KIR2DL4 /// KIR2DL5A /// KIR2DL5B /// KIR2DS1 /// KIR2DS2 /// KIR2DS3 /// KIR2DS4 /// KIR3DL3 /// KIR3DL3 /// KIR3DS1 (11738374_at) / RFU C1QL1 (11718748_at) / Fold change /veh C1QL1 (11718748_at) / RFU TMPRSS4 (11747572_a_at) / Fold change /veh TMPRSS4 (11747572_a_at) / RFU HAMP (11756126_x_at) / Fold change /veh HAMP (11756126_x_at) / RFU RNFT2 (11725882_a_at) / Fold change /veh RNFT2 (11725882_a_at) / RFU NR4A2 (11747474_a_at) / Fold change /veh NR4A2 (11747474_a_at) / RFU ABCC12 (11746883_a_at) / Fold change /veh ABCC12 (11746883_a_at) / RFU TMEM136 (11760407_x_at) / Fold change /veh TMEM136 (11760407_x_at) / RFU CLDN22 /// WWC2 (11732394_at) / Fold change /veh CLDN22 /// WWC2 (11732394_at) / RFU HLA-DPB1 (11760878_x_at) / Fold change /veh HLA-DPB1 (11760878_x_at) / RFU SPINT1 (11716480_a_at) / Fold change /veh SPINT1 (11716480_a_at) / RFU GAP43 (11754022_s_at) / Fold change /veh GAP43 (11754022_s_at) / RFU A4GNT (11735810_at) / Fold change /veh A4GNT (11735810_at) / RFU PRB3 (11715151_x_at) / Fold change /veh PRB3 (11715151_x_at) / RFU TUBB4B (11761932_at) / Fold change /veh TUBB4B (11761932_at) / RFU CAPN14 (11732068_a_at) / Fold change /veh CAPN14 (11732068_a_at) / RFU TMCC2 (11721928_a_at) / Fold change /veh TMCC2 (11721928_a_at) / RFU IRGQ (11745062_a_at) / Fold change /veh IRGQ (11745062_a_at) / RFU FAM174B (11720279_a_at) / Fold change /veh FAM174B (11720279_a_at) / RFU TMPRSS4 (11748680_a_at) / Fold change /veh TMPRSS4 (11748680_a_at) / RFU FAM212B (11763350_a_at) / Fold change /veh FAM212B (11763350_a_at) / RFU PLEKHG5 (11743358_a_at) / Fold change /veh PLEKHG5 (11743358_a_at) / RFU ZSCAN30 (11745921_a_at) / Fold change /veh ZSCAN30 (11745921_a_at) / RFU CMKLR1 (11741424_a_at) / Fold change /veh CMKLR1 (11741424_a_at) / RFU LOC101060620 /// MAPK8IP1 (11723275_at) / Fold change /veh LOC101060620 /// MAPK8IP1 (11723275_at) / RFU SPTSSB (11747773_x_at) / Fold change /veh SPTSSB (11747773_x_at) / RFU PRSS12 (11739890_at) / Fold change /veh PRSS12 (11739890_at) / RFU BIN1 (11741810_x_at) / Fold change /veh BIN1 (11741810_x_at) / RFU WNT11 (11732464_a_at) / Fold change /veh WNT11 (11732464_a_at) / RFU C10orf10 (11716521_a_at) / Fold change /veh C10orf10 (11716521_a_at) / RFU C5orf56 (11738089_at) / Fold change /veh C5orf56 (11738089_at) / RFU CYB561 (11721691_x_at) / Fold change /veh CYB561 (11721691_x_at) / RFU ANKRD19P (11752326_a_at) / Fold change /veh ANKRD19P (11752326_a_at) / RFU OR2T12 /// OR2T33 /// OR2T8 (11738714_s_at) / Fold change /veh OR2T12 /// OR2T33 /// OR2T8 (11738714_s_at) / RFU VCAN (11748164_a_at) / Fold change /veh VCAN (11748164_a_at) / RFU JSRP1 (11732532_at) / Fold change /veh JSRP1 (11732532_at) / RFU KRTAP10-11 (11738290_x_at) / Fold change /veh KRTAP10-11 (11738290_x_at) / RFU MYO3A (11730013_a_at) / Fold change /veh MYO3A (11730013_a_at) / RFU EBF3 (11725865_a_at) / Fold change /veh EBF3 (11725865_a_at) / RFU CAMK2N1 (11719241_x_at) / Fold change /veh CAMK2N1 (11719241_x_at) / RFU C5orf56 (11738088_a_at) / Fold change /veh C5orf56 (11738088_a_at) / RFU OLFML3 (11715873_a_at) / Fold change /veh OLFML3 (11715873_a_at) / RFU LOC100653217 /// NTM (11731650_a_at) / Fold change /veh LOC100653217 /// NTM (11731650_a_at) / RFU MAPK11 (11762145_a_at) / Fold change /veh MAPK11 (11762145_a_at) / RFU FIZ1 (11724087_x_at) / Fold change /veh FIZ1 (11724087_x_at) / RFU OASL (11726364_x_at) / Fold change /veh OASL (11726364_x_at) / RFU SOX15 (11748057_x_at) / Fold change /veh SOX15 (11748057_x_at) / RFU CD79A (11719716_a_at) / Fold change /veh CD79A (11719716_a_at) / RFU HIST1H1D (11736915_at) / Fold change /veh HIST1H1D (11736915_at) / RFU CASKIN2 (11723855_a_at) / Fold change /veh CASKIN2 (11723855_a_at) / RFU LOC730098 (11760151_x_at) / Fold change /veh LOC730098 (11760151_x_at) / RFU OR4N2 (11742367_at) / Fold change /veh OR4N2 (11742367_at) / RFU PRRT2 (11749266_a_at) / Fold change /veh PRRT2 (11749266_a_at) / RFU SNX32 (11753110_a_at) / Fold change /veh SNX32 (11753110_a_at) / RFU CDHR5 (11726645_a_at) / Fold change /veh CDHR5 (11726645_a_at) / RFU RCAN1 (11760418_a_at) / Fold change /veh RCAN1 (11760418_a_at) / RFU FAM167A (11723789_a_at) / Fold change /veh FAM167A (11723789_a_at) / RFU FAM26E (11764081_at) / Fold change /veh FAM26E (11764081_at) / RFU ISYNA1 (11749810_s_at) / Fold change /veh ISYNA1 (11749810_s_at) / RFU ACY1 (11761880_at) / Fold change /veh ACY1 (11761880_at) / RFU 11764098_at / Fold change /veh 11764098_at / RFU SAMD14 (11745864_x_at) / Fold change /veh SAMD14 (11745864_x_at) / RFU NPB (11741838_a_at) / Fold change /veh NPB (11741838_a_at) / RFU TMPRSS6 (11731388_a_at) / Fold change /veh TMPRSS6 (11731388_a_at) / RFU KRTAP10-2 (11738614_at) / Fold change /veh KRTAP10-2 (11738614_at) / RFU ARHGAP8 /// PRR5-ARHGAP8 (11727945_x_at) / Fold change /veh ARHGAP8 /// PRR5-ARHGAP8 (11727945_x_at) / RFU KRTAP5-7 /// NADSYN1 (11734609_at) / Fold change /veh KRTAP5-7 /// NADSYN1 (11734609_at) / RFU RASL12 (11751679_a_at) / Fold change /veh RASL12 (11751679_a_at) / RFU CDKN2B (11736163_a_at) / Fold change /veh CDKN2B (11736163_a_at) / RFU PRF1 (11729649_at) / Fold change /veh PRF1 (11729649_at) / RFU, ZNF638 /// ZNF638-IT1 / Fold change vs veh, ZNF638 /// ZNF638-IT1 / RFU, PANK3 / Fold change vs veh, PANK3 / RFU, SH3YL1 / Fold change vs veh, SH3YL1 / RFU, ZEB2 / Fold change vs veh, ZEB2 / RFU, NRIP1 / Fold change vs veh, NRIP1 / RFU, PTTG1IP / Fold change vs veh, PTTG1IP / RFU, CAPN2 / Fold change vs veh, CAPN2 / RFU, MED14 / Fold change vs veh, MED14 / RFU, SNORA58 / Fold change vs veh, SNORA58 / RFU, C1orf63 / Fold change vs veh, C1orf63 / RFU, LRRFIP1 / Fold change vs veh, LRRFIP1 / RFU, NDUFAF7 / Fold change vs veh, NDUFAF7 / RFU, SLC12A2 / Fold change vs veh, SLC12A2 / RFU, IBTK / Fold change vs veh, IBTK / RFU, ESF1 / Fold change vs veh, ESF1 / Fold change vs veh, TMEM50B / RFU, TAOK1 / Fold change vs veh, TAOK1 / RFU, ACBD3 / Fold change vs veh, ACBD3 / RFU, TMA16 / Fold change vs veh, TMA16 / RFU, RWDD3 / Fold change vs veh, RWDD3 / RFU, BCAT1 / Fold change vs veh, BCAT1 / RFU, EDEM3 / Fold change vs veh, EDEM3 / RFU, TMEM33 / Fold change vs veh, TMEM33 / RFU, WDR75 / Fold change vs veh, WDR75 / RFU, AHCTF1 / Fold change vs veh, AHCTF1 / RFU, TFRC / Fold change vs veh, TFRC / RFU, ZDHHC17 / Fold change vs veh, ZDHHC17 / RFU, NOM1 / Fold change vs veh, NOM1 / RFU, ARL8B / Fold change vs veh, ARL8B / RFU, ZBTB11 / Fold change vs veh, ZBTB11 / RFU, TAMM41 / Fold change vs veh, TAMM41 / RFU, KIAA1704 /// LOC100996395 / Fold change vs veh, KIAA1704 /// LOC100996395 / RFU, ING1 / Fold change vs veh, ING1 / RFU, TRMT61B / Fold change vs veh, TRMT61B / RFU, FUBP3 / Fold change vs veh, FUBP3 / RFU, TP53 / Fold change vs veh, TP53 / RFU, TNKS2 / Fold change vs veh, TNKS2 / RFU, ZFP14 / Fold change vs veh, ZFP14 / RFU, ACTR2 / Fold change vs veh, ACTR2 / RFU, PPP3R1 / Fold change vs veh, PPP3R1 / RFU, PIK3R1 / Fold change vs veh, PIK3R1 / RFU, HNRNPA1 / Fold change vs veh, HNRNPA1 / RFU, RNF170 / Fold change vs veh, RNF170 / RFU, ZNF28 / Fold change vs veh, ZNF28 / RFU, RNGTT / Fold change vs veh, RNGTT / RFU, OGT / Fold change vs veh, OGT / RFU, BRD1 / Fold change vs veh, BRD1 / RFU, MARS / Fold change vs veh, MARS / RFU, ZNF655 / Fold change vs veh, ZNF655 / RFU, FAHD1 / Fold change vs veh, FAHD1 / RFU, BDP1 / Fold change vs veh, BDP1 / RFU, LRRCC1 / Fold change vs veh, LRRCC1 / RFU, ARID1A / Fold change vs veh, ARID1A / RFU, ZNF146 / Fold change vs veh, ZNF146 / RFU, ZNF330 / Fold change vs veh, ZNF330 / RFU, GPN3 / Fold change vs veh, GPN3 / RFU, C9orf123 / Fold change vs veh, C9orf123 / RFU, N4BP2L2 / Fold change vs veh, N4BP2L2 / RFU, ARFIP1 / Fold change vs veh, ARFIP1 / RFU, FAM179B / Fold change vs veh, FAM179B / RFU, BCL10 / Fold change vs veh, BCL10 / RFU, UHRF1BP1L / Fold change vs veh, UHRF1BP1L / RFU, BET1 / Fold change vs veh, BET1 / RFU, CNOT2 / Fold change vs veh, CNOT2 / RFU, ZNF268 / Fold change vs veh, ZNF268 / Fold change vs veh, ZNF507 / RFU, DGCR2 / Fold change vs veh, DGCR2 / RFU, WDSUB1 / Fold change vs veh, WDSUB1 / Fold change vs veh, HSP90B1 /// MIR3652 / RFU, ADSS / Fold change vs veh, ADSS / RFU, GK / Fold change vs veh, GK / RFU, ZNF148 / Fold change vs veh, ZNF148 / RFU, TAF9 / Fold change vs veh, TAF9 / RFU, SLC1A5 / Fold change vs veh, SLC1A5 / RFU, SLMO2 / Fold change vs veh, SLMO2 / RFU, ABCC4 / Fold change vs veh, ABCC4 / RFU, LOC101060439 /// RAP1B / Fold change vs veh, LOC101060439 /// RAP1B / RFU, RFX7 / Fold change vs veh, RFX7 / RFU, GTPBP10 / Fold change vs veh, GTPBP10 / RFU, CNEP1R1 / Fold change vs veh, CNEP1R1 / RFU, BIVM-ERCC5 /// ERCC5 / Fold change vs veh, BIVM-ERCC5 /// ERCC5 / RFU, ILF3 / Fold change vs veh, ILF3 / RFU 11762660_at / Fold change /veh 11762660_at / RFU VCAN (11757783_s_at) / Fold change /veh VCAN (11757783_s_at) / RFU DDX43 (11728927_at) / Fold change /veh DDX43 (11728927_at) / RFU KRT8 (11758188_x_at) / Fold change /veh KRT8 (11758188_x_at) / RFU NKD1 (11759106_at) / Fold change /veh NKD1 (11759106_at) / RFU SRD5A1 (11742802_a_at) / Fold change /veh SRD5A1 (11742802_a_at) / RFU TPSAB1 /// TPSB2 (11721975_s_at) / Fold change /veh TPSAB1 /// TPSB2 (11721975_s_at) / RFU GSTM3 (11746129_a_at) / Fold change /veh GSTM3 (11746129_a_at) / RFU IL23R (11737362_x_at) / Fold change /veh IL23R (11737362_x_at) / RFU TMEM51 (11727254_a_at) / Fold change /veh TMEM51 (11727254_a_at) / RFU PIWIL2 (11732686_x_at) / Fold change /veh PIWIL2 (11732686_x_at) / RFU ORM1 (11744905_x_at) / Fold change /veh ORM1 (11744905_x_at) / RFU CCDC152 (11743942_at) / Fold change /veh CCDC152 (11743942_at) / RFU ECM1 (11717891_a_at) / Fold change /veh ECM1 (11717891_a_at) / RFU IL23R (11748794_a_at) / Fold change /veh IL23R (11748794_a_at) / RFU TNFAIP8L3 (11732012_x_at) / Fold change /veh TNFAIP8L3 (11732012_x_at) / RFU MBOAT4 (11741988_at) / Fold change /veh MBOAT4 (11741988_at) / RFU 11764193_at / Fold change /veh 11764193_at / RFU TMEM53 (11763286_at) / Fold change /veh TMEM53 (11763286_at) / RFU MAGEB2 (11727129_at) / Fold change /veh MAGEB2 (11727129_at) / RFU TMEM200A (11744735_a_at) / Fold change /veh TMEM200A (11744735_a_at) / RFU CCDC152 (11751479_a_at) / Fold change /veh CCDC152 (11751479_a_at) / RFU FAM211A (11726209_a_at) / Fold change /veh FAM211A (11726209_a_at) / RFU RGS16 (11746705_a_at) / Fold change /veh RGS16 (11746705_a_at) / RFU VCAN (11755009_s_at) / Fold change /veh VCAN (11755009_s_at) / RFU RHOB (11743442_s_at) / Fold change /veh RHOB (11743442_s_at) / RFU RGS16 (11720943_a_at) / Fold change /veh RGS16 (11720943_a_at) / RFU RGS16 (11720944_at) / Fold change /veh RGS16 (11720944_at) / RFU, VPS4B / Fold change vs veh, VPS4B / RFU, CREB1 / Fold change vs veh, CREB1 / RFU, DNAJC13 / Fold change vs veh, DNAJC13 / RFU, GNAQ / Fold change vs veh, GNAQ / RFU, CDK5R1 / Fold change vs veh, CDK5R1 / RFU, ZRANB3 / Fold change vs veh, ZRANB3 / RFU, CUL4A / Fold change vs veh, CUL4A / RFU, CCNY / Fold change vs veh, CCNY / RFU, UFL1 / Fold change vs veh, UFL1 / RFU, COG3 / Fold change vs veh, COG3 / RFU, DIAPH2 / Fold change vs veh, DIAPH2 / RFU, SKA2 / Fold change vs veh, SKA2 / RFU, AFF3 / Fold change vs veh, AFF3 / RFU, LMF1 / Fold change vs veh, LMF1 / RFU, IPO11 / Fold change vs veh, IPO11 / RFU, DFFB / Fold change vs veh, DFFB / RFU, FOXP1 / Fold change vs veh, FOXP1 / RFU, CARD8 / Fold change vs veh, CARD8 / RFU, STRN3 / Fold change vs veh, STRN3 / RFU, ADK / Fold change vs veh, ADK / RFU, RASSF2 / Fold change vs veh, RASSF2 / RFU, WIPF1 / Fold change vs veh, WIPF1 / RFU, LARP1B / Fold change vs veh, LARP1B / RFU, RASA1 / Fold change vs veh, RASA1 / RFU, RB1 / Fold change vs veh, RB1 / RFU, PPFIA1 / Fold change vs veh, PPFIA1 / RFU, MAT2A / Fold change vs veh, MAT2A / RFU, CCT5 / Fold change vs veh, CCT5 / RFU, WDR92 / Fold change vs veh, WDR92 / RFU, CUX1 / Fold change vs veh, CUX1 / RFU, TTC7A / Fold change vs veh, TTC7A / RFU, TMEM135 / Fold change vs veh, TMEM135 / RFU, DEPTOR / Fold change vs veh, DEPTOR / RFU, CPM / Fold change vs veh, CPM / RFU, DNAJB6 / Fold change vs veh, DNAJB6 / RFU, CACNA2D3 / Fold change vs veh, CACNA2D3 / RFU, DTX4 / Fold change vs veh, DTX4 / RFU, TFCP2 / Fold change vs veh, TFCP2 / RFU, GMCL1 /// GMCL1P1 / Fold change vs veh, GMCL1 /// GMCL1P1 / RFU, AEBP2 / Fold change vs veh, AEBP2 / RFU, SNHG1 /// SNORD22 /// SNORD25 /// SNORD26 /// SNORD27 /// SNORD28 /// SNORD29 /// SNORD31 / Fold change vs veh, SNHG1 /// SNORD22 /// SNORD25 /// SNORD26 /// SNORD27 /// SNORD28 /// SNORD29 /// SNORD31 / Fold change (Aza/veh), C12orf56 (ProbeSet 11735607_a_at) / Fold change (ACY-1035/veh), C12orf56 (ProbeSet 11735607_a_at) / Fold change (Aza/veh), FGFR1OP (ProbeSet 11751329_s_at) / Fold change (ACY-1035/veh), FGFR1OP (ProbeSet 11751329_s_at) / Fold change (Aza/veh), VPS36 (ProbeSet 11739960_a_at) / Fold change (ACY-1035/veh), VPS36 (ProbeSet 11739960_a_at) / RFU SYPL1 (11715823_x_at) / Fold change /veh SYPL1 (11715823_x_at) / RFU IGFBP7 (11715501_s_at) / Fold change /veh IGFBP7 (11715501_s_at) / RFU REEP3 (11722064_at) / Fold change /veh REEP3 (11722064_at) / RFU IGLL1 (11728026_x_at) / Fold change /veh IGLL1 (11728026_x_at): dose or concentration left out as unconfirmed
Conditions: ProbeSet 11720269_a_at; LIST B

Question: How did the “Fold change vs veh, IBTK” value turn out when `Nc1ncn([C@@H]2O[C@H](CO)[C@@H](O)[C@H]2O)c(=O)n1` [azacitidine] was run?
Answer: 0.94

From publication PMC5218480 (PLoS ONE, 2017)
